Experimental data as given in US11319313B2, “Crystalline forms of deuterium-enriched pioglitazone” (Poxel SA, priority 2020, dated 2022).
Marks after values point to notes of the source that are not given here.

Tests used:
[1] = Dog pharmacokinetic (PK) study, single oral administration; assay type: in vivo, Beagle dogs
Experimental: The 3 Beagle male dogs were fasted before dosing. Then all test drugs were administered by the oral route using API in a capsule. [table] Food was given no sooner than one hour after dose administration on the days of treatment. Each administration was separated by a wash-out period of at least 2 days. […] Predose (just before dosing) and then […] after dosing.

[2] = Phase Ia single-dose PK study in healthy human subjects; assay type: in vivo; conditions: single oral dose 22.5 mg capsule
Experimental: PXL065, orally administered.
(§1) Actos®, orally administered. Dose=1×45 mg, tablet.

[3] = Phase Ib repeated-dose PK study in healthy human subjects; assay type: in vivo; conditions: for AUC0-24,ss, total pioglitazone / AUC0-24, ss dose normalized, total pioglitazone: steady state; for AUC0-24,ss, total pioglitazone: fasting
Experimental: Subjects were screened within 28 days before their first dose of study medication. They stayed in the clinic from 1 day before dosing (Day −1) until at least 48 hours after their final dose of trial medication (Day 11).
Each dose group was composed of 4 males and 4 females in a 3:1 active/placebo ratio. • One (1) Actos® group: 6 subjects (3 males and 3 females) were given Actos®. Placebo was not given to any subjects in this group.
Subjects received a single oral dose of study drug (7.5, 15, or 30 mg tablets of PXL065 or matching placebo tablets, or 45 mg Actos® tablets), under fasting conditions on Day 1. […] All study drugs were dosed in fasting conditions.
The PXL065 PK parameters of the three single oral doses on Day 1 and after seven daily administrations on Day 9 were compared to the Actos® PK parameters on Day 1 and after seven daily administrations on Day 9.
PXL065, orally administered. Dose=1×7.5 mg tablet, 1×15 mg tablet, or 1×30 mg tablet.
as §1
One single oral administration of PXL065 or matching placebo or Actos® was given on Day 1 in fasting conditions followed by once daily multiple oral administrations of PXL065 or matching placebo or Actos® from Day 3 to Day 9 (7 days) in fasting conditions.
Pharmacokinetics: Plasma samples were analyzed using a validated assay. The samples from all evaluable subjects were analyzed. Samples from subjects who experienced emesis within 4 hours of dosing were not analyzed.
Plasma PK parameters included, but were not limited to: • Following single dose on Day 1 and Day 3 (for PXL065 groups): tmax, tlag, Cmax, AUC0-last, AUC0-24, AUC0-inf, λz, t1/2, % AUCext, CL/F, Vz/F, Cmax/Dose, AUC0-last/Dose, AUC0-inf/Dose and MRT each calculated using compartmental or non-compartmental methods as appropriate for the deuterated and protonated (R)- and (S)-enantiomers of pioglitazone. • Day 4 to Day 9: Ctrough for the deuterated and protonated (R)- and (S)-enantiomers of pioglitazone; and • Following repeated doses on Day 9: tmax, Cmax, Cavg, tlag, AUC0-last, AUC0-24, AUC0-inf, λz, t1/2, % AUCext, CLss/F, Vzss/F, MRT, PTF, Rac(AUC0-24), Rac(Cmax) SR(AUC), Cmax/Dose, AUC0-last/Dose, AUC0-inf/Dose, AUC0-24/Dose. Safety

[4] = 13-week dog toxicology study, toxicokinetics on day 91; conditions: for AUC0-24, ss dose normalized, total pioglitazone: Day 91, 5 mg/kg/day; for AUC0-24,ss, total pioglitazone: Day 91, oral capsule 5 mg/kg/day
[5] = single oral 5 mg/kg (capsule), fasted male dogs, plasma, mean

[2H][C@]1(Cc2ccc(OCCc3ccc(CC)cn3)cc2)SC(=O)NC1=O [PXL065, deuterium-enriched (R)-pioglitazone]
AUC0-24, Total Pio ([1]; dog, in vivo, po, 5 mg/kg): 7000 ng·h/mL
AUC0-24, Total R-pio ([1]; dog, in vivo, po, 5 mg/kg): 5770 ng·h/mL
AUC0-24, Total S-pio ([1]; dog, in vivo, po, 5 mg/kg): 1240 ng·h/mL
Cmax, Total Pio ([1]; dog, in vivo, po, 5 mg/kg): 1520 ng/mL
Cmax, Total R-pio ([1]; dog, in vivo, po, 5 mg/kg): 1330 ng/mL
Cmax, Total S-pio ([1]; dog, in vivo, po, 5 mg/kg): 227 ng/mL
Tmax, Total Pio ([1]; dog, in vivo, po, 5 mg/kg): 1 h
Tmax, Total R-pio ([1]; dog, in vivo, po, 5 mg/kg): 1 h
Tmax, Total S-pio ([1]; dog, in vivo, po, 5 mg/kg): 2 h
T1/2z, Total Pio [1, 5]: 1.46^a h
T1/2z, Total R-pio [1, 5]: 1.43^a h
T1/2z, Total S-pio [1, 5]: 1.62^a h
AUCinf dose normalized, total pioglitazone [2]: 618 ng·h/mL/mg
AUCinf, total pioglitazone ([2]; fasted healthy subjects): 13896 ng·h/mL
AUC0-24,ss, total pioglitazone ([3]; 15 mg tablet once daily, repeated doses): 6505 ng·h/mL
AUC0-24, ss dose normalized, total pioglitazone ([3]; 15 mg tablet): 434 ng·h/mL/mg
AUC0-24,ss, total pioglitazone ([3]; 30 mg tablet once daily, repeated doses): 13802 ng·h/mL
AUC0-24, ss dose normalized, total pioglitazone ([3]; 30 mg tablet): 460 ng·h/mL/mg
Increase of relative bioavailability compared to Actos ([3]; humans, repeated doses): 55%-65%
AUC0-24, ss dose normalized, total pioglitazone ([4]; female dogs (F)): 1762 ng·h/mL
AUC0-24,ss, total pioglitazone ([4]; female dogs (F)): 8710 ng·h/mL
AUC0-24, ss dose normalized, total pioglitazone ([4]; male dogs (M)): 2180 ng·h/mL
AUC0-24,ss, total pioglitazone ([4]; male dogs (M)): 10900 ng·h/mL
